Test results from US20170027951A1, “METHODS AND COMPOSITIONS TO TREAT CANCERS INVOLVING EGFR” (Southern Research Institute, priority 2015, published 2017).

What was measured:
HCT116 cells [1] = test: Clonogenic (colony formation) assay in HCT116 cells; assay type: cell-based; conditions: FIG. 2B; 10 days after treatment; gefitinib 5 μM, JNJ 38877605 1 μM, PD184161 0.01 or 0.02 μM
Description: HCT116 cells, which are MT KRas, were treated with gefitinib (5 μM) in the absence or presence of a MET kinase inhibitor (JNJ 38877605; 1 μM) or a MEKI kinase inhibitor (PD184161; 0.01 μM or 0.02 μM) as indicated.
(§1) For clonogenic assay cells were seeded in 6-well plates at a density of 400 cells per well and were treated as indicated. After colony formation (8-12 days), cells were stained with crystal violet (0.5% w/v) (see Kueng W., et al., Anal Biochem (1989) 182: 16-19), and the number of colonies was determined using ImageQuant TL software (GE Healthcare Life Sciences, Pittsburgh, Pa., US).

RKO cells [2] = test: CellTiter-Glo cell viability assay in RKO cells (WT KRas, express HGF); assay type: cell-based; conditions: FIG. 1A; 96 hours after treatment; gefitinib 5 μM, JNJ 38877605 1 μM, PD184161 0.01, 0.05 or 1 μM
Description: Cell viability assays were conducted using the CellTiter-Glo® Luminescent Cell Viability Assay kit purchased from Promega Corporation (Madison, Wis., US) and used per the manufacturer's protocol. Cells were seeded in 96-well plates at a density of 1×10^4 cells per well and cell viability was assessed at the indicated time points.

HCT116 cells [3] = test: CellTiter-Glo cell viability assay in HCT116 cells (MT KRas, express HGF); assay type: cell-based; conditions: FIG. 2A; 96 hours after treatment; gefitinib 5 μM, JNJ 38877605 1 μM, PD184161 0.01 or 0.02 μM
Excerpt: Due to the presence of MT KRas, HCT116 cells have activated ERK signaling.

DiFi cells = test: Caspase-Glo 3/7 activity assay in DiFi cells with or without CCD-18Co fibroblast conditioned medium; assay type: cell-based; conditions: FIG. 3C, 18 hr post-treatment; for caspase 3/7 activity (apoptosis), single agent: gefitinib 1 μM or JNJ 38877605 1 μM alone, no fibroblast conditioned media
Excerpt: Media were removed and replaced with serum-free MEM.

RKO cells [4] = test: Clonogenic (colony formation) assay in RKO cells; assay type: cell-based; conditions: FIG. 1B; 10 days after treatment; gefitinib 5 μM, JNJ 38877605 1 μM, PD184161 0.01, 0.05 or 1 μM
Description: as §1
The effect of treatment with gefitinib alone or in combination with an inhibitor of MET kinase activity (using the inhibitor JNJ388777605) or inhibitor of MEK kinase activity (using the inhibitor PD184161) on viability and clonogenic growth was determined in RKO and HT29 cells.

ERK 1/2 = test: Western blot of ERK 1/2 phosphorylation in RKO cells; assay type: cell-based; conditions: FIG. 1D, gefitinib dose or times post-treatment
Description: Immunoblotting was performed using standard procedures. Nitrocellulose membranes (GE Healthcare Life Sciences, Pittsburgh, Pa.) were blocked with 5% non-fat milk for 1 hour at room temperature, and incubated with primary antibodies overnight at 4° C. Primary antibodies used were anti-p-ERK1/2 (Cell Signaling Technology, Inc., Danvers, Mass., US) and anti-β-actin (Sigma-Aldrich Co. LLC, Saint Louis, Mo., US). Following washing with TBS-T buffer, membranes were incubated with horseradish peroxidase-conjugated secondary antibodies for 1 hour and then washed with TBS-T. Immunoblots were developed using the Amersham Western Blotting ECL chemiluminescent reagents (GE Healthcare Life Sciences, Pittsburgh, Pa., US). Protein loading was normalized by probing blots for the expression of β-actin.

[5] = patients with mCRC, Amado et al. 2008; cited from earlier work

Compound	effect on clonogenic growth (colony formation) of HCT116 cells (HCT116 cells [1])	effect on RKO cell viability (RKO cells [2])	effect on HCT116 cell viability (HCT116 cells [3])	caspase 3/7 activity (apoptosis), single agent (DiFi cells)	effect on clonogenic growth (colony formation) of RKO cells (RKO cells [4])	caspase 3/7 activity (apoptosis) in the presence of fibroblast conditioned media (FIB) (DiFi cells; gefitinib 1 μM, JNJ 38877605 1 μM, CCD-18Co conditioned media)	phosphorylation status of ERK 1/2 (p-ERK 1/2 by Western blot) (ERK 1/2)	KRas WT patients who benefit [5]
Cn1cc(-c2ccc3nnc(C(F)(F)c4ccc5ncccc5c4)n3n2)cn1 [JNJ 38877605]	no apparent effect on clonogenic growth	no apparent effect on cell viability	no apparent effect on cell viability	no apparent effect on induction of caspases/apoptosis	no apparent effect on clonogenic growth	–	–	–
COc1cc2ncnc(Nc3ccc(F)c(Cl)c3)c2cc1OCCCN1CCOCC1 [gefitinib]	no apparent effect on clonogenic growth	modest	modestly decreased cell viability	increase in caspase 3/7 activity	no apparent effect on clonogenic growth	inhibit gefitinib-induced apoptosis	an increase in the amount of p-ERK 1/2	–
PD184161	no apparent effect on clonogenic growth	no apparent effect on cell viability	no apparent effect on cell viability	–	no apparent effect on clonogenic growth	–	–	–
panitumumab	–	–	–	–	–	–	–	17%
